Data reported in PubChem BioAssay (NCI).
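1) Cells in 96-well plates. 2) Compound, 48 h, 5 concentrations. 3) Linear interpolation between surrounding doses. 4) Unreached endpoint = highest concentration. At the GI50, growth is halved. The concentration for full growth arrest is given as TGI.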

Assays:
Test in all cases: NCI anticancer screen, dose series, 48 h
OVCAR-4 ovarian = tested on: OVCAR-4 ovarian
COLO 205 colon = tested on: COLO 205 colon
MALME-3M melanoma = tested on: MALME-3M melanoma
SF-268 CNS = tested on: SF-268 CNS
SK-OV-3 ovarian = tested on: SK-OV-3 ovarian
HS 578T breast = tested on: HS 578T breast
RXF 393 renal = tested on: RXF 393 renal
UACC-62 melanoma = tested on: UACC-62 melanoma
OVCAR-5 ovarian = tested on: OVCAR-5 ovarian
MOLT-4 leukemia = tested on: MOLT-4 leukemia

Row | Structure (SMILES) | TGI (OVCAR-4 ovarian) [µM] | TGI (COLO 205 colon) [µM] | TGI (MALME-3M melanoma) [µM] | TGI (SF-268 CNS) [µM] | TGI (SK-OV-3 ovarian) [µM] | TGI (HS 578T breast) [µM] | TGI (RXF 393 renal) [µM] | TGI (UACC-62 melanoma) [µM] | TGI (OVCAR-5 ovarian) [µM] | TGI (MOLT-4 leukemia) [µM] | GI50 (OVCAR-4 ovarian) [µM] | GI50 (COLO 205 colon) [µM] | GI50 (MALME-3M melanoma) [µM] | GI50 (SF-268 CNS) [µM] | GI50 (SK-OV-3 ovarian) [µM] | GI50 (HS 578T breast) [µM] | GI50 (RXF 393 renal) [µM] | GI50 (UACC-62 melanoma) [µM] | GI50 (OVCAR-5 ovarian) [µM] | GI50 (MOLT-4 leukemia) [µM]
1 | CN(CCCNC(=O)c1nn(C)c2c1Cc1ccccc1-2)CCCNC(=O)c1nn(C)c2c1Cc1ccccc1-2 | 32.5 | 30.2 | 37.2 | 37.9 | 34.1 | 42.1 | 34.3 | 35.9 | 40.8 | 24.4 | – | – | – | – | – | – | – | – | – | –
2 | O=C1CC(=O)NC(=NN2C(=O)CSC2C(=O)c2ccco2)N1 (stereo not given) | > 100 | > 100 | > 100 | > 100 | > 100 | > 100 | > 100 | > 100 | > 100 | > 100 | – | – | – | – | – | – | – | – | – | –
3 | CN1CCc2c(sc3ncn(Nc4ccc(Cl)cc4)c(=N)c23)C1 | > 100 | > 100 | > 100 | > 100 | > 100 | > 100 | > 100 | > 100 | > 100 | > 100 | – | – | – | – | – | – | – | – | – | –
4 | COC(=O)c1c(C)cccc1C1CN=NC12Cc1cc(C)cc(C)c1C2=O (stereo not given) | > 100 | 31.9 | > 100 | > 100 | > 100 | > 100 | > 100 | > 100 | > 100 | > 100 | – | – | – | – | – | – | – | – | – | –
5 | Cc1cc2c(cc1C)C(=O)C1(C2)Cc2cc3c(cc2C1=O)CCC3 (stereo not given) | > 100 | > 100 | > 100 | > 100 | > 100 | > 100 | > 100 | > 100 | > 100 | > 100 | – | – | – | – | – | – | – | – | – | –
6 | O=C(O)c1c2c(cc3c1CC1(Cc4cc5c(cc4C1=O)CCC5)C3)CCC2 (stereo not given) | > 100 | > 100 | > 100 | > 100 | > 100 | > 100 | > 100 | > 100 | > 100 | > 100 | – | – | – | – | – | – | – | – | – | –
7 | Cc1cc(S(=O)(=O)Nc2nncn2-c2ccc(Cl)cc2)c(S)cc1Cl | > 10 | > 10 | > 10 | > 10 | > 10 | > 10 | > 10 | > 10 | > 10 | > 10 | – | – | – | – | – | – | – | – | – | –
8 | O=[N+]([O-])c1cc2ccc(N(CCO)CCO)nc2nc1N(CCO)CCO | > 100 | > 100 | > 100 | > 100 | > 100 | > 100 | > 100 | > 100 | > 100 | > 100 | – | – | – | – | – | – | – | – | – | –
9 | Cc1cc(OCCOCCC(F)(F)P(=O)(O)O)ccc1CCc1cnc2c(N)nc3cc(CCC(=O)O)ccc3c2c1 | > 100 | > 100 | > 100 | > 100 | > 100 | > 100 | > 100 | > 100 | > 100 | > 100 | > 100 | > 100 | > 100 | > 100 | > 100 | 26.6 | > 100 | > 100 | > 100 | > 100
10 | CCOC(=O)/C=C(\C(=O)OCC)n1cc(Cl)c(=O)n(CC(=O)OCC)c1=O | 41.2 | 1.86 | 3.85 | 32.7 | 33.9 | > 100 | 3.77 | 24.6 | 33.3 | 6.05 | – | – | – | – | – | – | – | – | – | –
11 | COC1=C(C)C(=O)C2=C(C1=O)C1C3CC4=C(C(=O)C(OC)=C(C)C4=O)C(CNC(=O)C(C)O)N3C(C#N)C(C2)N1C (stereo not given) | 0.334 | < 0.01 | < 0.0139 | 0.146 | 1.2 | < 0.01 | 0.022 | < 0.01 | 0.0888 | < 0.215 | – | – | – | – | – | – | – | – | – | –
12 | N/C(=N\Nc1ccc(Cl)cc1)c1cnccn1 | > 100 | 40.1 | > 100 | > 100 | > 100 | > 100 | > 100 | > 100 | > 100 | > 100 | – | – | – | – | – | – | – | – | – | –
13 | COc1ccc(NC(C(N)=O)c2cc3cc(Br)ccc3nc2Cl)cc1 (stereo not given) | > 100 | > 100 | > 100 | > 100 | > 100 | > 100 | > 100 | > 100 | > 100 | 62.9 | – | – | – | – | – | – | – | – | – | –
14 | CCN(CC)CCn1c(=O)c2c(C)c3oc4ccccc4oc3c(C)c2c1=O | > 100 | > 100 | > 100 | > 100 | > 100 | > 100 | > 100 | > 100 | > 100 | > 100 | – | – | – | – | – | – | – | – | – | –
15 | CCOC(=O)CCN1C(=O)C(=O)N(c2ccc(OC)cc2)C1=S | > 100 | > 100 | > 100 | > 100 | > 100 | > 100 | > 100 | 48.5 | > 100 | > 100 | – | – | – | – | – | – | – | – | – | –
16 | CCN(CC)c1ccc(/C=C2\CCc3ccc([N+](=O)[O-])cc3C2=O)cc1 | > 100 | > 100 | > 100 | > 100 | > 100 | > 100 | > 29.9 | > 100 | > 100 | > 100 | – | – | – | – | – | – | – | – | – | –

Row | Structure (SMILES) | TGI (OVCAR-4 ovarian) [µM] | TGI (COLO 205 colon) [µM] | TGI (MALME-3M melanoma) [µM] | TGI (SF-268 CNS) [µM] | TGI (SK-OV-3 ovarian) [µM] | TGI (HS 578T breast) [µM] | TGI (RXF 393 renal) [µM] | TGI (UACC-62 melanoma) [µM] | TGI (OVCAR-5 ovarian) [µM] | TGI (MOLT-4 leukemia) [µM] | GI50 (OVCAR-4 ovarian) [µM] | GI50 (COLO 205 colon) [µM] | GI50 (MALME-3M melanoma) [µM] | GI50 (SF-268 CNS) [µM] | GI50 (SK-OV-3 ovarian) [µM] | GI50 (HS 578T breast) [µM] | GI50 (RXF 393 renal) [µM] | GI50 (UACC-62 melanoma) [µM] | GI50 (OVCAR-5 ovarian) [µM] | GI50 (MOLT-4 leukemia) [µM]
17 | CCOC1NC(=O)Oc2cc3ccccc3cc21 (stereo not given) | > 100 | > 100 | > 100 | > 100 | > 100 | > 100 | > 100 | > 100 | > 100 | > 100 | – | – | – | – | – | – | – | – | – | –
18 | C=CCOC(=O)N1c2ccc(O)cc2[C@@]23O[C@@]24[C@@H]1C#C/C=C\C#C[C@]3(O)C(OC)(OC)C[C@@H]4C | 47.2 | 33.1 | 82 | > 100 | > 100 | 90.9 | > 100 | > 100 | > 100 | > 100 | – | – | – | – | – | – | – | – | – | –
19 | CC1(C)C2CCC1C(=O)[C@@]1(C=CC(=O)CC1)C2 (stereo not given in full) | > 100 | > 100 | > 100 | > 100 | > 100 | > 100 | > 100 | > 100 | > 100 | > 100 | – | – | – | – | – | – | – | – | – | –
20 | Cc1c(C)c(C)c(-n2c(=O)n(C)c(=O)n2-c2cc(C(C)(C)C)cc(C(C)(C)C)c2O)c(C)c1C | 21.4 | 20 | 24.9 | 27.7 | 25.2 | 31.9 | 11.6 | 23.7 | 26.9 | 19.3 | – | – | – | – | – | – | – | – | – | –
21 | CCCCc1ccc(Nc2nc(Cl)c3c(ncn3C3CC(Oc4ccc(C)cc4)C(COc4ccc(C)cc4)O3)n2)cc1 (stereo not given) | > 100 | > 100 | > 100 | > 100 | > 100 | > 100 | > 100 | > 100 | > 100 | > 100 | – | – | – | – | – | – | – | – | – | –
22 | COc1ccc(-c2ncn(C[Si](C)(C)C)c2-c2ccc(OC)cc2)cc1 | 25.6 | 11.7 | 23.7 | 28.7 | 36.9 | 37.1 | 21.1 | 10.2 | 18.3 | 4.22 | – | – | – | – | – | – | – | – | – | –
23 | NC(=O)CC(N)C(=O)NC(Cc1ccccc1)C(=O)NC(Cc1ccccc1)NC(=O)C(Cc1c[nH]c2ccccc12)C(=O)O (stereo not given) | > 100 | > 100 | > 100 | > 100 | > 100 | > 100 | > 100 | > 100 | > 100 | > 100 | – | – | – | – | – | – | – | – | – | –
24 | Nn1c(=O)[nH]c2ncn(Cc3ccccc3)c2c1=O | > 100 | > 100 | > 100 | > 100 | > 100 | > 100 | > 100 | > 100 | > 100 | > 100 | – | – | – | – | – | – | – | – | – | –
25 | O=c1c2cnccc2cc2c3ccccc3ccn12 | > 100 | > 100 | > 100 | > 100 | > 100 | > 100 | > 100 | > 100 | > 100 | 91.8 | – | – | – | – | – | – | – | – | – | –
26 | CCOC(=O)[C@@]1(C)CC(O)C(=O)N1C (stereo not given in full) | > 100 | > 100 | > 100 | > 100 | > 100 | > 100 | > 100 | > 100 | > 100 | > 100 | – | – | – | – | – | – | – | – | – | –
27 | CC(C)(C)NC(=O)/C(=C\Sc1ccccc1)c1ccccc1 | > 100 | > 100 | > 100 | > 87.8 | > 100 | > 100 | > 100 | > 100 | > 100 | > 100 | – | – | – | – | – | – | – | – | – | –
28 | CCCCSC1=N/C(=C\c2ccc(N(C)C)cc2)C(=O)N1 | > 100 | > 100 | > 100 | > 100 | > 100 | 92.1 | > 100 | 81.3 | > 100 | > 100 | – | – | – | – | – | – | – | – | – | –
29 | c1ccc(Nc2nn3c(CCCCCCCCc4nnc5sc(Nc6ccccc6)nn45)nnc3s2)cc1 | > 100 | 42.8 | > 100 | > 100 | > 100 | > 100 | > 100 | > 100 | > 100 | 41.7 | – | – | – | – | – | – | – | – | – | –
30 | CN(O)C(=O)CCCC(=O)NCC(C)(C)CNC(=O)CCCC(=O)N(C)O | > 100 | > 100 | > 100 | > 100 | > 100 | > 100 | > 100 | > 100 | > 100 | > 100 | – | – | – | – | – | – | – | – | – | –
31 | O=C(OC1CN2CCC1CC2)N(c1ccccc1)c1ccccc1 (stereo not given) | > 100 | > 100 | > 100 | > 100 | > 100 | > 100 | > 100 | > 100 | > 100 | > 100 | – | – | – | – | – | – | – | – | – | –
